What was measured:
CCKA = target: T1, CCKA (Cavia porcellus, UniProt Q63931); assay: CCKA radioligand binding assay in guinea-pig pancreas membranes ([125I]-CCK8(S)); settings: PD134,308 present, 150 minutes at 21±3°
T1 construct: The pancreatata were homogenised in 40 ml ice-cold HEPES buffer using a polytron; from tissue; host or cells: pancreas membranes of male Dunkin Hartley guinea-pigs
T1 sequence (Q63931 1-430): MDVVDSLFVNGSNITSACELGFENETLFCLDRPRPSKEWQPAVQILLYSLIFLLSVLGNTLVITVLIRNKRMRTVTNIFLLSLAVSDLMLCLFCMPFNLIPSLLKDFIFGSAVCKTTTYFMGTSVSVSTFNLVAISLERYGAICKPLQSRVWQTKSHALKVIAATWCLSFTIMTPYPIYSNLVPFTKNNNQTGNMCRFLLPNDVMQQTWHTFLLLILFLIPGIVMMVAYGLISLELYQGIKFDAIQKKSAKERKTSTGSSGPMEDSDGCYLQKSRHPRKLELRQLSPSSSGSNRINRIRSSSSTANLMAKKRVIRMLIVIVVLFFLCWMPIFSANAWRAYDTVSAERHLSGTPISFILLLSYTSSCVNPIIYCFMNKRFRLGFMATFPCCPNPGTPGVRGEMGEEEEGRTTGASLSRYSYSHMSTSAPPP
Procedure, shortened: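 Male guinea-pig pancreas membranes (1 mg/ml wet tissue in HEPES pH 7.2, suspension containing 0.375 μM PD134,308) were incubated 150 min at 21±3° with [125I]-CCK8(S) ([…] added solution) and competitor. Non-specific binding used 100 nM L-364,718 (added solution). Bound radioligand was measured by GF/B filtration and gamma counting.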

gastrin = target: T2, gastrin (Rattus norvegicus, UniProt P30553); assay: gastrin antagonist activity in an immature rat stomach assay (pentagastrin-stimulated acid secretion); settings: cumulative pentagastrin dose-response curves after 60 min with drug
T2 construct: The stomach was lowered into a jacketed organ bath containing 40 ml of buffered solution; from tissue; host or cells: isolated perfused whole stomach of immature rats (ca. 21 days old)
T2 sequence (P30553 1-452): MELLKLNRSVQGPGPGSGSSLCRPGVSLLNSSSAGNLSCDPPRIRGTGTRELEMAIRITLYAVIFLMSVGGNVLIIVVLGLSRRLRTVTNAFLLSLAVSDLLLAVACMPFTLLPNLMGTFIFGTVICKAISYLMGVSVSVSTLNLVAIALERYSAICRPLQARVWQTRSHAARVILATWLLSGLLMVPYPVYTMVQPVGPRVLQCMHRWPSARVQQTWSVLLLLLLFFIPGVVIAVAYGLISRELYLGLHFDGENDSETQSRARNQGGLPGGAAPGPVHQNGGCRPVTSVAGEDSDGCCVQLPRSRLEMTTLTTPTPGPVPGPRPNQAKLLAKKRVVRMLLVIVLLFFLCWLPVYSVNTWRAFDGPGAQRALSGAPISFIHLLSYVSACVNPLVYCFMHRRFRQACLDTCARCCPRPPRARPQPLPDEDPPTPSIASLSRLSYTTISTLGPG
Procedure: The compounds of the examples were also tested for gastrin antagonist activity in an immature rat stomach assay. The procedure was as follows:
The oesophagus of immature rats (33-50 g, ca. 21 days old) was ligated at the level of the cardiac sphincter and the duodenal sphincter was cannulated. The stomach was excised and flushed with ca. 1 ml of unbuffered physiological saline solution. The fundus was punctured and cannulated. A further 4-5 ml of unbuffered solution was flushed through the stomach to ensure the preparation was not leaking. The stomach was lowered into a jacketed organ bath containing 40 ml of buffered solution containing 3×10^-8 M 5-methylfurmethide, maintained at 37° and gassed vigorously with 95% O2 /5% CO2. The stomach was continuously perfused at a rate of 1 ml min^-1 with unbuffered solution gassed with 100% O2 with the perfusate passing over an internally referenced pH-electrode fixed 12 cm above the stomach.
After 120 min of stabilisation the drugs were added directly to the serosal solution in the organ bath and after a further 60 min cumulative pentagastrin dose-response curves were started. Changes in acid secretion were monitored and the curves analysed according to Black et.al., Br. J. Pharmacol., 1985, 86, 581.

CCKB receptor = target: T3, CCKB receptor (Mus musculus, UniProt P56481); assay: CCKB receptor radioligand binding assay in mouse cortical membranes ([125I]-CCK8S); settings: [125I]-CCK8S 200 pM, 150 min at 21±3°
T3 construct: The cortex was dissected, weighed and homogenised in 40ml ice-cold buffer; tissue Charles River (supplier of the CD1 mice); host or cells: cerebral cortex membranes of male CD1 mice
T3 sequence (P56481 1-453): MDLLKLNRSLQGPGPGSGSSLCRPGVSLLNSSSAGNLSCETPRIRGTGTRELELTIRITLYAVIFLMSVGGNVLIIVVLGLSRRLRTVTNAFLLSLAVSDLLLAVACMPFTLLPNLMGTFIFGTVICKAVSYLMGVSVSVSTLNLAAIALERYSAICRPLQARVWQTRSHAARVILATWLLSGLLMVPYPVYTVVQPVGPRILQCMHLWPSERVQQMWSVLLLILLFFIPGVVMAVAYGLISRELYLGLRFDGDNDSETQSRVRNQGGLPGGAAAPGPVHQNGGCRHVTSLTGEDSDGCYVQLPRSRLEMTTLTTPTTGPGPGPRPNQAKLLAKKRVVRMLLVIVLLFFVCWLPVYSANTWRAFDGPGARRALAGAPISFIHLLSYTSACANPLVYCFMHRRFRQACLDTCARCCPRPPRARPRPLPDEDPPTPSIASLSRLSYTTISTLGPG
Procedure, shortened: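 Cortical membranes from male CD1 mice in HEPES buffer (pH 7.2; NaCl, KCl, MgCl2, EDTA, bacitracin) were incubated with competing compound and [125I]-CCK8S (added as a 200 pM solution) for 150 min at 21±3°. Non-specific binding was defined with L-365,260. Bound tracer was separated by GF/B filtration and counted by gamma counting.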

Molecule: 1/2-(1-adamantanemethylaminocarbonyl)-naphthoic acid Regioisomer 1 [Example 21]
- CCKA pKi (CCKA): 5.2
- Gastrin pKB (gastrin): 5.3

Molecule: 3-(1S-(3,5-dicarboxyphenylaminocarbonyl)-2-phenyl ethylaminocarbonyl)-2-(1-adamantanemethylaminocarbonyl)-5-aminonaphthalene [Example 116]
- CCKA pKi (CCKA): 5.6
- Gastrin pKB (gastrin): 9.0
- CCKB pKi (CCKB receptor): 8.5

Molecule: 3-(1S-(3,5-dicarboxyphenylaminocarbonyl)-2-phenylethylaminocarbonyl)-2-(1-adamantanemethylaminocarbonyl)-5-nitronaphthalene and its regioisomer with groups at positions 2 and 3 reversed [Example 55]
- CCKA pKi (CCKA): 5.8
- Gastrin pKB (gastrin): 8.3
- CCKB pKi (CCKB receptor): 8.2

Molecule: 5-(1R-(3,5-dicarboxyphenylaminocarbonyl)-2-phenylethylaminocarbonyl)-6-(1-adamantanemethylaminocarbonyl)-indole and regioisomer with substituents at positions 5 and 6 reversed [Example 29]
- CCKA pKi (CCKA): 5.4
- Gastrin pKB (gastrin): 9.2
- CCKB pKi (CCKB receptor): 8.1

Molecule: 5-(1R-(3,5-dicarboxyphenylaminocarbonyl)-ethylaminocarbonyl)-6-(cycloheptanemethylaminocarbonyl)-indole and regioisomer with substituents at positions 5 and 6 reversed [Example 59]
- CCKA pKi (CCKA): 5.1
- Gastrin pKB (gastrin): 7.5
- CCKB pKi (CCKB receptor): 6.9

Molecule: 5-(1S-(3,5-di-methylsulphonylaminophenylaminocarbonyl)-2-phenylethylaminocarbonyl)-6-(1-adamantanemethylaminocarbonyl)-indole [Example 92]
- CCKA pKi (CCKA): 4.9
- Gastrin pKB (gastrin): 6.8
- CCKB pKi (CCKB receptor): 6.5

Molecule: 5-(1S-(3,5-dicarboxyphenylaminocarbonyl)-2-(2-fluorophenyl)ethylaminocarbonyl)-6-(1-adamantanemethylaminocarbonyl)-indole and regioisomer with substituents at positions 5 and 6 reversed [Example 27]
- CCKA pKi (CCKA): 5.6
- Gastrin pKB (gastrin): 9.2
- CCKB pKi (CCKB receptor): 8.5

Molecule: 5-(1S-(3,5-dicarboxyphenylaminocarbonyl)-2-(3-fluorophenyl)ethylaminocarbonyl)-6-(1-adamantanemethylaminocarbonyl)-indole and regioisomer with substituents at positions 5 and 6 reversed [Example 28]
- CCKA pKi (CCKA): 5.4
- Gastrin pKB (gastrin): 9.7
- CCKB pKi (CCKB receptor): 8.5

Molecule: 5-(1S-(3,5-dicarboxyphenylaminocarbonyl)-2-(4-aminophenyl)ethylaminocarbonyl)-6-(1-adamantanemethylaminocarbonyl)-indole and regioisomer with substituents at positions 5 and 6 reversed [Example 31]
- CCKA pKi (CCKA): 5.5
- Gastrin pKB (gastrin): 8.9
- CCKB pKi (CCKB receptor): 7.9

Molecule: 5-(1S-(3,5-dicarboxyphenylaminocarbonyl)-2-(4-hydroxyphenyl)e thylaminocarbonyl)-6-(1-adamantanemethylaminocarbonyl)-indole and regioisomer with substituents at positions 5 and 6 reversed [Example 30]
- CCKA pKi (CCKA): 5.2
- Gastrin pKB (gastrin): 9.1
- CCKB pKi (CCKB receptor): 7.6

Molecule: 5-(1S-(3,5-dicarboxyphenylaminocarbonyl)-2-phenylethylaminocarbonyl)-6-(1-adamantanemethyl-N-methylaminocarbonyl)-indole and regioisomer with substituents at positions 5 and 6 reversed [Example 41]
- CCKA pKi (CCKA): 5.7
- Gastrin pKB (gastrin): 7.8
- CCKB pKi (CCKB receptor): 7.8

Molecule: 5-(1S-(3,5-dicarboxyphenylaminocarbonyl)-2-phenylethylaminocarbonyl)-6-(1-adamantanemethylaminocarbonyl)-2,3-dihydro-benzofuran [Example 123]
- CCKA pKi (CCKA): 6.3
- Gastrin pKB (gastrin): 8.5
- CCKB pKi (CCKB receptor): 7.9

Molecule: 5-(1S-(3,5-dicarboxyphenylaminocarbonyl)-2-phenylethylaminocarbonyl)-6-(1-adamantanemethylaminocarbonyl)-benzofuran [Example 122]
- CCKA pKi (CCKA): 5.4
- Gastrin pKB (gastrin): 9.1
- CCKB pKi (CCKB receptor): 8.3

Molecule: 5-(1S-(3,5-dicarboxyphenylaminocarbonyl)-2-phenylethylaminocarbonyl)-6-(2,2-dimethylpropylaminocarbonyl)-indole and regioisomer with substituents at positions 5 and 6 reversed [Example 46]
- CCKA pKi (CCKA): 5.1
- Gastrin pKB (gastrin): 7.1
- CCKB pKi (CCKB receptor): 6.7

Molecule: 5-(1S-(3,5-dicarboxyphenylaminocarbonyl)-2-phenylethylaminocarbonyl)-6-(cycloheptanemethylaminocarbonyl)-indole and regioisomer with substituents at positions 5 and 6 reversed [Example 42]
- CCKA pKi (CCKA): 5.5
- Gastrin pKB (gastrin): 9.3
- CCKB pKi (CCKB receptor): 7.8

Molecule: O=C(O)c1cc(NC(=O)[C@H](Cc2ccccc2C(F)(F)F)NC(=O)c2cc3[nH]cnc3cc2C(=O)NCC23CC4CC(CC(C4)C2)C3)cc(C(=O)O)c1 [Example 133, 5-(1S-(3,5-dicarboxyphenylaminocarbonyl)-2-(2-trifluoromethylphenyl)ethylaminocarbonyl)-6-(1-adamantanemethylaminocarbonyl)-benzimidazole]
- Ki (CCKA; read-out: CCKA pKi (converted)): 7.94 µM
- Kb (gastrin; read-out: Gastrin pKB (converted)): 0.00794 µM

Source: patent US5795907A, “Gastin and CCK receptor ligands” (James Black Foundation Limited, priority 1994, dated 1998)
